Experimental data taken from patent publication US20260256807A1, “SUBSTITUTED PYRAZOLES AND IMIDAZOLES AS OREXIN RECEPTOR ANTAGONISTS COMPOSITION, METHODS FOR TREATING NEUROLOGICAL AND PSYCHOLOGICAL DISORDERS” (HAGER BIOSCIENCES, LLC, priority 2022, published 2026).

Legend:
human orexin-2 receptor = molecular target: T1, human orexin-2 receptor (Homo sapiens, UniProt O43614); assay: Intracellular calcium (FLIPR) antagonist assay, CHO cells expressing human orexin-2 receptor, 3 nM orexin-A; format: cell-based; conditions: CHO, 1 uM compound, orexin-A 3 nM, read-out: OX2R % Inh. @ 1uM
T1 construct: expressed in transfected cells; host or cells: CHO cells (G418 selection)
T1 sequence (O43614 1-444): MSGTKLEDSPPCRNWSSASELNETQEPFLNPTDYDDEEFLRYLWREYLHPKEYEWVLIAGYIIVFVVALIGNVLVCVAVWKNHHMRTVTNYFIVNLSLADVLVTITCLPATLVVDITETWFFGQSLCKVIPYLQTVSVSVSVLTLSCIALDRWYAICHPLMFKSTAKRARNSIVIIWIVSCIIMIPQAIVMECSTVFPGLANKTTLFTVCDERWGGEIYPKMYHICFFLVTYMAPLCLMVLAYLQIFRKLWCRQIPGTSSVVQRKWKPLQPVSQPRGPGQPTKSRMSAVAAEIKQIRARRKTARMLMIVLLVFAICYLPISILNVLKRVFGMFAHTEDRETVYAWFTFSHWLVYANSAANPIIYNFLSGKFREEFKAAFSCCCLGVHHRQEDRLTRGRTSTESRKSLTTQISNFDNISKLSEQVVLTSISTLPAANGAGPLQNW
Protocol: (§1) Antagonistic activities on both orexin receptors (i.e., to identify Orexin Receptor Antagonists) have been measured for each example compound using the in vitro assays (intracellular calcium measurements) as described herein. Other assays may also be used to identify Orexin Receptor Antagonists as would be understood by those of ordinary skill in the art. Chinese hamster ovary (CHO) cells expressing the human orexin-1 receptor and the human orexin-2 receptor, respectively, are grown in culture medium (Ham F-12 with L-Glutamine) containing 300 μg/mL G418, 100 U/mL penicillin, 100 μg/mL streptomycin and 10% heat inactivated fetal calf serum (FCS). The cells are seeded at 20′000 cells/well into 384-well black clear bottom sterile plates (Greiner). The seeded plates are incubated overnight at 37° C. in 5% CO2. Human orexin-A as an agonist is prepared as 1 mM stock solution in MeOH: water (1:1), diluted in HBSS containing 0.1% bovine serum albumin (BSA), NaHC03: 0.375 g/L and 20 mM HEPES for use in the assay at a final concentration of 3 nM.
(§2) Antagonists were prepared as 10 mM stock solution in DMSO, then diluted in 384-well plates using DMSO followed by a transfer of the dilutions into in HBSS containing 0.1% bovine serum albumin (BSA), NaHC03: 0.375 g/L and 20 mM HEPES. On the day of the assay, 50 μL of staining buffer (HBSS containing 1% FCS, 20 mM HEPES, NaHC03: 0.375 g/L, 5 mM probenecid (Sigma) and 3 μM of the fluorescent calcium indicator fluro-4 AM (1 mM stock solution in DMSO, containing 10% pluronic) is added to each well. The 384-well cell-plates are incubated for 50 min at 37° C. in 5% C02 followed by equilibration at RT for 30 min before measurement. Within the Fluorescent Imaging Plate Reader (FLIPR Tetra, Molecular Devices), potential Orexin Receptor Antagonists were added to the plate in a volume of 10 μl/well, incubated for 120 min and finally 10 μL/well of agonist is added. Fluorescence was measured for each well at 1 second intervals, and the height of each fluorescence peak compared to the height of the fluorescence peak induced by 3 nM orexin-A with vehicle in place of antagonist. The IC50 value (the concentration of compound needed to inhibit 50% of the agonistic response) was determined and normalized using the obtained IC50 value of an on-plate reference compound. Optimized conditions were achieved by adjustment of pipetting speed and cell splitting regime. The calculated IC50 values fluctuate depending on the daily cellular assay performance, as is known to those skilled in the art. In the case where IC50 values have been determined several times for the same compound, the geometric mean has been given.

human orexin-1 receptor = molecular target: T2, human orexin-1 receptor (Homo sapiens, UniProt O43613); assay: Intracellular calcium (FLIPR) antagonist assay, CHO cells expressing human orexin-1 receptor, 3 nM orexin-A; format: cell-based; conditions: CHO, 1 uM compound, orexin-A 3 nM, read-out: OXIR % Inh. @ 1 uM
T2 construct: expressed in transfected cells; host or cells: CHO cells (G418 selection)
T2 sequence (O43613 1-425): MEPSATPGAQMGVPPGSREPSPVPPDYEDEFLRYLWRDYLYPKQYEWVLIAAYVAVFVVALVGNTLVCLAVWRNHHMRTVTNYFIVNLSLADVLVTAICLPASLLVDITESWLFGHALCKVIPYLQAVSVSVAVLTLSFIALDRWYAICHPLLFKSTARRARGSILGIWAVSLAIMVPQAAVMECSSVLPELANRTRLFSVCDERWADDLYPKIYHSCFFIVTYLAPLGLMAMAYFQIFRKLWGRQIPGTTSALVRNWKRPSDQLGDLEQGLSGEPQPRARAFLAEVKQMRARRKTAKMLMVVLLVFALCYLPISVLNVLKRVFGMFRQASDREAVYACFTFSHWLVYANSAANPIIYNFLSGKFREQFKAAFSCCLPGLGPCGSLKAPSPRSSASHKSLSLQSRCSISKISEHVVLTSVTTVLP
Protocol: as §1, §2

Row | Structure (SMILES) | inhibition at 1 µM (human orexin-2 receptor) [%] | inhibition at 1 µM (human orexin-1 receptor) [%]
1 | Cc1cc(C)nc(N2CC3CN(C(=O)C4C(c5ccccc5)=NN5C=CC=CC45)CC3C2)n1 (stereo not drawn) [Example 42] | 68 | 40.4
2 | Cc1cc(C)nc(N2CC3CN(C(=O)c4c(-c5ccccc5)nc5ccccn45)CC3C2)n1 (stereo not drawn) [Example 43] | 38.4 | 19.6
3 | Cc1cc(C)nc(N2CC3CN(C(=O)c4c(-c5ccccc5F)nn5ccccc45)CC3C2)n1 (stereo not drawn) [Example 44] | 56.1 | 19.2
4 | O=C(c1c(-c2ccccc2F)nn2ccccc12)N1CC2CN(c3ccc(C(F)(F)F)cn3)CC2C1 (stereo not drawn) [Example 45] | 27.1 | 78.2
5 | O=C(c1c(-c2ccc(F)cc2)nn2ccccc12)N1CC2CN(c3ccc(C(F)(F)F)cn3)CC2C1 (stereo not drawn) [Example 46] | 14.6 | 53.9
6 | O=C(c1c(-c2ccccc2F)nn2ccccc12)N1CC2CN(c3nc4cc(Cl)ccc4o3)CC2C1 (stereo not drawn) [Example 47] | 89 | 97
7 | O=C(c1c(-c2ccc(F)cc2)nn2ccccc12)N1CC2CN(c3nc4cc(Cl)ccc4o3)CC2C1 (stereo not drawn) [Example 48] | 63.2 | 87.1
8 | Cc1cc(C)nc(N2CC3CN(C(=O)c4c(-c5ccccc5F)nn5c4COCC5)CC3C2)n1 (stereo not drawn) [Example 49] | 12.8 | -5.54
9 | O=C(c1c(-c2ccccc2F)nn2c1COCC2)N1CC2CN(c3ccc(C(F)(F)F)cn3)CC2C1 (stereo not drawn) [Example 50] | 1.62 | 9.55
10 | O=C(c1c(-c2ccccc2F)nn2c1COCC2)N1CC2CN(c3nc4cc(Cl)ccc4o3)CC2C1 (stereo not drawn) [Example 51] | 24.3 | 38.5
11 | C[C@@H]1CCN(c2nc3cc(Cl)ccc3o2)CCN1C(=O)c1c(-c2ccccc2F)nn2ccccc12 [Example 52] | 98.7 | 100
12 | C[C@@H]1CCN(c2ccc(C(F)(F)F)cn2)CCN1C(=O)c1c(-c2ccccc2F)nn2ccccc12 [Example 53] | 98.8 | 102
13 | Cc1cc(C)nc(N2CC[C@@H](C)N(C(=O)c3c(-c4ccccc4F)nn4ccccc34)CC2)n1 [Example 54] | 99.7 | 91.9
14 | C[C@@H]1CCN(c2ccc(C(F)(F)F)cn2)CCN1C(=O)c1nc2ccccn2c1-c1ccccc1 [Example 55] | 37 | 97
15 | C[C@@H]1CCN(c2nc3cc(Cl)ccc3o2)CCN1C(=O)c1nc2ccccn2c1-c1ccccc1 [Example 56] | 27 | 97
16 | C[C@@H]1CCN(c2nc3cc(Cl)ccc3o2)CCN1C(=O)c1nn2c(c1-c1ccccc1)COCC2 [Example 57] | 28 | 98
17 | C[C@@H]1CCN(c2ccc(C(F)(F)F)cn2)CCN1C(=O)c1nn2c(c1-c1ccccc1)COCC2 [Example 58] | 30 | 94
18 | C[C@@H]1CCN(c2nc3cc(Cl)ccc3o2)CCN1C(=O)c1nn2c(c1-c1ccccc1)OCCC2 [Example 59] | 97 | 99
19 | C[C@@H]1CCN(c2ccc(C(F)(F)F)cn2)CCN1C(=O)c1nn2c(c1-c1ccccc1)OCCC2 [Example 60] | 81 | 97
20 | C[C@@H]1CCN(c2nc3cc(Cl)ccc3o2)CCN1C(=O)c1c(-c2ncccn2)nn2ccccc12 [Example 61] | 64 | 100

Row | Structure (SMILES) | inhibition at 1 µM (human orexin-2 receptor) [%] | inhibition at 1 µM (human orexin-1 receptor) [%]
21 | C[C@@H]1CCN(c2ccc(C(F)(F)F)cn2)CCN1C(=O)c1c(-c2ncccn2)nn2ccccc12 [Example 62] | 44 | 100
22 | C[C@@H]1CCN(c2nc3cc(Cl)ccc3o2)CCN1C(=O)c1c(-c2ccccn2)nn2ccccc12 [Example 63] | 96 | 100
23 | C[C@@H]1CCN(c2ccc(C(F)(F)F)cn2)CCN1C(=O)c1c(-c2ccccn2)nn2ccccc12 [Example 64] | 85 | 100
24 | C[C@@H]1CCN(c2nc3cc(Cl)ccc3o2)CCN1C(=O)c1c(-c2ccccc2)nn2cccnc12 [Example 65] | 80 | 99
25 | C[C@@H]1CCN(c2ccc(C(F)(F)F)cn2)CCN1C(=O)c1c(-c2ccccc2)nn2cccnc12 [Example 66] | 83 | 99
26 | C[C@@H]1CCN(c2nc3cc(Cl)ccc3o2)CCN1C(=O)c1nn2cccnc2c1-c1ccccc1 [Example 67] | 80 | 99
27 | C[C@@H]1CCN(c2ccc(C(F)(F)F)cn2)CCN1C(=O)c1nn2cccnc2c1-c1ccccc1 [Example 68] | 68 | 100
28 | Cc1cc(C)nc(N2CC[C@@H](C)N(C(=O)c3nc4ccccn4c3-c3ccccc3)CC2)n1 [Example 69] | 34 | 23
29 | Cc1cc(C)nc(N2CC[C@@H](C)N(C(=O)c3nn4c(c3-c3ccccc3)COCC4)CC2)n1 [Example 70] | 44 | 27
30 | Cc1cc(C)nc(N2CC[C@@H](C)N(C(=O)c3nn4ccccc4c3-c3ccccc3)CC2)n1 [Example 71] | 96 | 75
31 | Cc1cc(C)nc(N2CC[C@@H](C)N(C(=O)c3c(-c4ccccc4)nn4c3COCC4)CC2)n1 [Example 72] | 65 | 28
32 | Cc1cc(C)nc(N2CC[C@@H](C)N(C(=O)c3c(-c4ccccc4)nc4ccccn34)CC2)n1 [Example 73] | 95 | 65
33 | Cc1cc(C)nc(N2CC[C@@H](C)N(C(=O)c3nn4cccnc4c3-c3ccccc3)CC2)n1 [Example 74] | 95 | 74
34 | Cc1cc(C)nc(N2CC[C@@H](C)N(C(=O)c3c(-c4ccccn4)nn4ccccc34)CC2)n1 [Example 75] | 100 | 79
35 | COc1ccc(N2CC[C@@H](C)N(C(=O)c3nn4c(c3-c3ccccc3)COCC4)CC2)nc1 [Example 76] | 11 | 23
36 | COc1ccc(N2CC[C@@H](C)N(C(=O)c3nc4ccccn4c3-c3ccccc3)CC2)nc1 [Example 77] | 16 | 38
37 | COc1ccc(N2CC[C@@H](C)N(C(=O)c3nn4ccccc4c3-c3ccccc3)CC2)nc1 [Example 78] | 52 | 90
38 | COc1ccc(N2CC[C@@H](C)N(C(=O)c3nn4c(c3-c3ccccc3)OCCC4)CC2)nc1 [Example 79] | 21 | 45
39 | COc1ccc(N2CC[C@@H](C)N(C(=O)c3nn4cccnc4c3-c3ccccc3)CC2)nc1 [Example 80] | 39 | 78
